This note sets out measurements from patent publication US12630573B2, “High-affinity Cu(I) ligands and methods of use thereof” (GEORGIA TECH RESEARCH CORPORATION, priority 2019, dated 2026).

Common to all, as to assay type: binding
A short description of assay [1]: Spectrophotometric Cu(I) competition titration against BCS. The note with it: pH 7.0, 10 mM PIPES, 0.1 M KCl, 25° C. The protocol: An aqueous sodium bathocuproine disulfonate (BCS, Acros Organics) stock solution (60 mM) was prepared calibrated by competition titration against MCL-1 as previously described (Bagchi, P., et al., J. Am. Chem. Soc., 135(49) (2013)). BCS (1.50 mM), sodium ascorbate (150 μM) and CuSO4 (30 μM) were sequentially added via aqueous stock solutions to 3 mL of buffer (10 mM PIPES, 0.1 M KCl, pH 7.0) in a 1-cm path length cuvette equipped with magnetic stirring, and a UV-Vis absorption spectrum was recorded from 650-380 nm. PhenPS was added in 5 μM aliquots from a 2.88 mM stock solution in DMF and an absorption spectrum was acquired after a 2 min equilibration period following each aliquot. The titration was conducted in duplicate, and each dataset was analyzed by nonlinear least squares fitting over the spectral range from 650-400 nm using the Specfit software package from Spectrum Software Associates. The stability constant for naphPS was determined similarly except that the ligand was delivered from a 3.0 mM stock solution in DMSO and a 5-minute equilibration period was required to obtain a stable spectrum after each aliquot.
An aqueous sodium bathocuproine disulfonate (BCS, Acros Organics) stock solution (60 mM) was prepared and calibrated by competition titration against MCL-1 as previously described (Bagchi, P., et al., J. Am. Chem. Soc., 135(49) (2013)). […]

The nature of assay [2]: Molar ratio titration against BCA copper(I) complex. To be noted: linear decrease in absorbance at 562 nm. The protocol:
In a quartz cuvette with 1 cm path length, BCA (9.0 μL) was diluted from a 50 mM aqueous stock solution (dissolved by addition of KOH) into 3.0 mL of buffer (10 mM PIPES, 0.1 M KCl, pH 7.0, 25° C.). Furthermore, Cu(II)SO4 (5.0 μL) from a 30 mM stock solution) and sodium ascorbate (7.5 μL from a 60 mM stock solution) were added. After equilibration for 10 minutes, a UV-vis spectrum was recorded, and the solution was titrated in 1-10 μL aliquots with a 3 mM stock solution of phenPS in DMF or naphPS in DMSO. For phenPS, the endpoint occurred at 1.04 molar equivalents on the basis of the mass employed for stock solution preparation, consistent with incomplete removal of the solvent of crystallization as observed by ^1H NMR. An independent molar ratio titration against [Cu(I)MCL-2]PF6 confirmed the stock concentration as 2.88 mM rather than 3.0 mM, and the plotted Cu(I)/phenPS ratio is adjusted accordingly.

Assay [3] is described as follows: Molar ratio titration with [Cu(I)MCL-2]PF6. To be noted: 10 mM PIPES, 0.1 M KCl, pH 7; fit 250-400 nm. The protocol:
In a quartz cuvette with 1 cm path-length, a 50 μM aqueous solution of phenPS was prepared by diluting the ligand from a stock solution (3 mM in DMF) into 2.95 mL of aqueous buffer (10 mM PIPES, 0.1 M KCl, pH 7) under rapid stirring. After recording a UV-vis absorption spectrum from 240 to 500 nm, [Cu(I)MCL-2]PF6 (3 mM stock solution in water) was added in 5 μM aliquots up to 95 μM. The absorption spectrum was recorded after a 1 min mixing period following each aliquot. To derive an accurate reference spectrum of Cu(I)-MCL-2 complex, a separate titration was conducted using pure DMF in place of the phenPS stock solution. The exact concentration of the phenPS stock solution was calibrated against [Cu(I)MCL-2]PF6 by plotting the apparent fractional saturation of the ligand, calculated as f=(A−A0)/(Asat−A0) where A corresponds to the absorbance at 290 nm and the subscripts 0 and sat refer to the spectra at 0 and 50 μM Cu(I), versus nominal molar equivalents of Cu(I) for the first 10 data points (0-0.9 molar equivalents). After concentration correction and subtraction of the DMF background absorption, non-linear least-squares fitting of the titration dataset over the wavelength range 250-400 nm was performed using a fixed log β11 of 21.2 for Cu(I)-phenPS to yield a log β12=31.86±0.07 (log K2=10.66±0.07) for Cu(I)2phenPS.

Turning to `CP(C)(=S)CP(CP(C)(C)=S)c1ccccc1P(CP(C)(C)=S)CP(C)(C)=S` [phenPS, 1,2-Bis(bis(dimethylphosphorothioylmethyl)phosphino)benzene], in assay [1], the “dissociation constant Kd of Cu(I) complex” value is listed as 0.6 zM. Besides, the “removal of Cu(I) from BCA complex” value in assay [2] is given as “quantitative removal of Cu(I)”. Further, in assay [3], the “log β12 for Cu(I)2phenPS” value stood at 31.86±0.07.
As to `CP(C)(=S)CP(CP(C)(C)=S)c1cccc2cccc(P(CP(C)(C)=S)CP(C)(C)=S)c12` [naphPS, 1,8-Bis(bis(dimethylphosphorothioylmethyl)phosphino)naphthalene], in assay [2], the “removal of Cu(I) from BCA complex” value is “quantitative removal of Cu(I)”.
